Patent publication US12655458B2, “Methods for cyclization of (poly)peptides comprising nγ-hydroxy- or Nγ-amino-L-asparagine” (priority 2021, dated 2026)
“Also recorded” adds a separate entry of the source. Starred links: 1 amine or outer side, 2 acyl side, 3 side chain; linkers in the order of their positions; H or OH if unused. Positions of bridges follow the written chain, without caps; N, C: chain ends. Non-standard residues stand in square brackets, D forms with d. Residues, ends and D or L forms follow the SMILES beside them. No end group written: not given here. *: point of attachment. N(NH2) = N-gamma-amino-L-asparagine, O=C(C[C@H](N[*:1])C(=O)[*:2])NN[*:3]; NHOH = ON*

What was measured:
[1] = target: T1, MMP2 (Homo sapiens, UniProt P08253); test: MMPs inhibition assay (FRET substrate), MMP2; assay type: biochemical
T1 construct: purchased Sigma-Aldrich
T1 sequence (P08253 110-660): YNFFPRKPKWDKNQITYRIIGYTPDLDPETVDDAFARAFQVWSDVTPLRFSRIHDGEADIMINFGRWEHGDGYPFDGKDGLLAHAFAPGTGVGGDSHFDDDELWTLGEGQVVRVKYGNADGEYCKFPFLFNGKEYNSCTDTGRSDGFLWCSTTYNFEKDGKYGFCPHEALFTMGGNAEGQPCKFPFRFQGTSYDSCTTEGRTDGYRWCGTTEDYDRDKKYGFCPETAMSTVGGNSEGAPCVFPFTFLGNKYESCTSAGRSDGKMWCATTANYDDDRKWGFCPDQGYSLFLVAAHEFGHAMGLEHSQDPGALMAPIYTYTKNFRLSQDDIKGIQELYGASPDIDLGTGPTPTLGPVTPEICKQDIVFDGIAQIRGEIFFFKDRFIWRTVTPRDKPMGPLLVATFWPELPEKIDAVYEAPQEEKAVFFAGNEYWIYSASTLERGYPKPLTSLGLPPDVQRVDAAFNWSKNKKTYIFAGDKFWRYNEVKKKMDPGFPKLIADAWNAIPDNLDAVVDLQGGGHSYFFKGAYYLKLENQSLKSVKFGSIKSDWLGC
Description: (§1) The inhibitory activity of the peptides was determined by measuring the MMPs' protease activity towards a FRET substrate. 0.8 nM MMP2 or MMP9 (Sigma-Aldrich), 10 μM substrate (FAM-Lys-Pro-Leu-Gly-Leu-Lys(Dabcyl)-Ala-Arg-NH2, λex 490 nm; λem 520 nm) and various concentrations of the peptides (0.0001 μM-10 μM or 0.001 μM-100 μM) were used. The reactions were performed in 50 mM Tris-HCl buffer (pH 7.5) containing 150 mM NaCl, 10 mM CaCl2, 0.05% Brij35, at 37° C. MMP2 was pre-incubated with the peptide inhibitors for 10 min before adding the substrate. All the numbers were input into GraphPad Prism (GraphPad Software, San Diego) for IC50 calculation.

[2] = target: T2, MMP9 (Homo sapiens, UniProt P14780); test: MMPs inhibition assay (FRET substrate), MMP9; assay type: biochemical
T2 construct: purchased Sigma-Aldrich
T2 sequence (P14780 94-707, species assumed): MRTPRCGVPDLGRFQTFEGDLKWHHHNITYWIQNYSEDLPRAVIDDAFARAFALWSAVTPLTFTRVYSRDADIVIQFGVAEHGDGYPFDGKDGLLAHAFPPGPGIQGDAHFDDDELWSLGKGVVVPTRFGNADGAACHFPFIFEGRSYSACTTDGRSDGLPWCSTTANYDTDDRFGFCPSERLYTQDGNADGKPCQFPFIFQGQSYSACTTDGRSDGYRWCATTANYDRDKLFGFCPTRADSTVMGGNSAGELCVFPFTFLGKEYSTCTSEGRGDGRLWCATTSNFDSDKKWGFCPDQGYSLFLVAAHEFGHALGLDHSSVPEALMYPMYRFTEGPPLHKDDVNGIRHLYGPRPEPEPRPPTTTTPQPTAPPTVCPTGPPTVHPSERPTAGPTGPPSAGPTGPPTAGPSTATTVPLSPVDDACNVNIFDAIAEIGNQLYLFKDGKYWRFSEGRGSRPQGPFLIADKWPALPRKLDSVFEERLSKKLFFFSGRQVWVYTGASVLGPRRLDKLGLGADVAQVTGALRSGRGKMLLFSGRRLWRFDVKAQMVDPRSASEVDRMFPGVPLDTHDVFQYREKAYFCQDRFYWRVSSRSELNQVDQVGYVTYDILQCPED
Description: as §1

[3] = Stability in human serum by HPLC analysis; assay type: in vitro ADME; settings: 37° C.
Description: Peptides were mixed with human serum to a final concentration of 100 μM and incubated at 37° C. Aliquots of the sample were taken out at different time points and 10% TFA was added to quench all protease activities, followed by addition of 10% of DMSO. The solution mixture was centrifuged (11,000 g, 5 min, 4° C.) and the supernatant was analysed by RP-HPLC (15% buffer B-65% buffer B in 25 min) and ESI-MS. The quantity of the remaining peptides was determined by comparing their HPLC peak area with the initial peak area.

[4] = test system: butelase-1; test: Inhibitory activity assay of AN(Me)12-HV 7 on butelase-1 cyclization of pB1 peptide; assay type: biochemical, Clitoria ternatea; settings: 200 μM pB1, 0.001 eq butelase-1, pH 6.5, 37° C., 10 min; increasing concentration of peptide 7
Sequence of butelase-1 (as listed by the source): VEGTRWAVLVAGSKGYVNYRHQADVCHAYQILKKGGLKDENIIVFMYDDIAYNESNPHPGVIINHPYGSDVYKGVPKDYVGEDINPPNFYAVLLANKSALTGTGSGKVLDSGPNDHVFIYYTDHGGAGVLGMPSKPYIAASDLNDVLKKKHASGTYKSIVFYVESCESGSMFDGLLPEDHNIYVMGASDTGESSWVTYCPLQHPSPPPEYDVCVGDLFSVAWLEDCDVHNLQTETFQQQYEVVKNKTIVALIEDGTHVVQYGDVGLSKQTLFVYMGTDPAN
Description: FIG. 7. Inhibitory activity assay of AN(Me)12-HV 7. (a) RP-HPLC trace for cyclization of pB1 peptide ([…]; SEQ ID NO:13). The cyclization reaction was performed at 37° C. in the present of 200 μM of peptide substrates and 0.001 eq of butelase-1 in 20 mM PBS (pH 6.5) for 10 min. The reactions were monitored by RP-HPLC. The cyclic peptide is labelled as c[pB1] and starred HPLC peak is the potentially inhibitory peptide AN(Me)12-HV 7. […] (b) MALDI profiles of pB1 and AN(Me)12-HV 7 before and after treatment with butelase-1.
(§2) Enzyme-meditated cyclization and ligation reactions were performed in 20 mM PBS buffer (pH 6.5) at 37° C. with 0.5 mM TCEP. The reaction was quenched by adding 20% TFA. The enzyme concentration was determined by the absorbance at 280 nm using Nanodrop. The reactions were monitored by reverse-phase analytical HPLC, and the products were characterized by MALDI-MS or ESI-MS.

[5] = test system: butelase-1; test: Kinetics of peptide cyclization by butelase-1; assay type: biochemical, Clitoria ternatea
Description: as §2
Model peptides (1-6, see Table 51) were used in the kinetic studies. The cyclization reaction was performed in 20 mM PBS buffer (pH 6.5) containing 0.5 mM TCEP, at 37° C. The reaction was monitored by analytical RP-HPLC (5% buffer B-45% buffer B in 20 min). Kinetic constants for these peptides were obtained from the initial reaction rates. To ensure that the measurement of reaction rate was in the range of the initial velocity, the reaction was quenched using 20% TFA, when less than 25% of the substrate has been converted. Each recorded value is an average of measurements in triplicate. All the numbers were input into GraphPad Prism (GraphPad Software, San Diego) to obtain the Michaelis-Menten curve and calculate the kinetic parameters (kcat and Km).
Plant flowers of Clitoria ternatea grown in the Nanyang Technological University Herb Garden were collected. Butelase-1 was extracted using a chromatography method described previously.^5 Purified butelase-1 was obtained and stored at 4° C. or −80° C. in 50 mM sodium phosphate buffer (pH 6.0) containing 1 mM EDTA, 5 mM β-mercaptoethanol, 0.01% Tween 20 and 20% sucrose.

[6] = test system: butelase 1; test: Butelase 1-mediated inter-peptide ligation with acyl acceptor GIRGI; assay type: biochemical, Clitoria ternatea; settings: 400 uM peptide, 3.2 mM GIRGI, 0.01 eq butelase 1, pH 6.5, room temperature
Sequence of butelase 1 (as listed by the source): as above
Description: The reaction was conducted using 400 uM of Ac-KYSN(NH2)GL and 3.2 mM of GIRGI (8 eq) in the presence of 0.01 eq butelase 1 in 20 mM PBS buffer (pH 6.5) at room temperature. The ligation product was obtained in >80% yield in 1 h (FIG. 28, lower panel). The fact that Asn(NH2) can be recognized by butelase 1 as a P1 residue for inter-peptide ligation indicates it can also be used to mediate peptide cyclization (FIG. 27).

Molecule: CC[C@H](C)[C@@H]1NC(=O)[C@@H]2CSSC[C@H](NC(=O)[C@H](CCCNC(=N)N)NC(=O)[C@@H]3CSSC[C@H](NC1=O)C(=O)N[C@@H]([C@@H](C)O)C(=O)N[C@@H](CCCNC(=N)N)C(=O)NCC(=O)N[C@@H](Cc1ccccc1)C(=O)N3)C(=O)N[C@@H](CC(C)C)C(=O)N[C@H]1CSSC[C@H](NC(=O)[C@H](C(C)C)NC(=O)CNC(=O)[C@H](CCCNC(=N)N)NC(=O)[C@H](CCCNC(=N)N)NC1=O)C(=O)N[C@@H](CCCNC(=N)N)C(=O)N2 [Peptide 16, reference compound] (cyclo(GFCRCLCRRGVCRCICTR); disulfide 3-16, 5-14, 7-12 (inferred); ring closure inferred)
- Ki [1]: 0.06 ± 0.0104 µM
- Ki [2]: > 10 µM

Molecule: CC[C@H](C)[C@@H]1NC(=O)[C@@H]2CSSC[C@H](NC(=O)[C@H](CC(=O)NO)NC(=O)[C@@H]3CSSC[C@H](NC1=O)C(=O)N[C@@H]([C@@H](C)O)C(=O)N[C@@H]([C@@H](C)CC)C(=O)N[C@@H](CO)C(=O)N[C@@H](Cc1ccc(O)cc1)C(=O)N3)C(=O)N[C@@H](CC(C)C)C(=O)N[C@H]1CSSC[C@H](NC(=O)[C@H](C(C)C)NC(=O)CNC(=O)[C@H](CCCNC(=N)N)NC(=O)[C@H](CCCNC(=N)N)NC1=O)C(=O)N[C@@H](CCCNC(=N)N)C(=O)N2 [Peptide 17] (cyclo(CD(NHOH)CLCRRGVCRCICTISY); disulfide 1-14, 3-12, 5-10 (inferred); ring closure inferred)
- Ki [1]: 0.0028 µM
- better MMP2 binding affinity than Asn-RTD-1 19 [1]: 13 fold
- better MMP2 binding affinity than Asp-RTD-1 18 [1]: 2.3 fold
- improvement of MMP2 Ki over linear Asn(OH)-APP-IP peptide 9 [1]: 8.2 fold
- more potent towards MMP2 than MMP9 (selectivity) ([1]; MMP2 over MMP9): about 1000 fold
- stability in human serum ([3]; after 16 h): remained intact

Molecule: AIYRRGRLYRRN(Me) HV [Peptide 7]
- inhibition of butelase-1 cyclization of pB1 peptide [4]: nor did it inhibit the cyclization; also recorded: didn't affect the cyclization rate of pB1
- recognition by butelase-1 as substrate for cyclization [5]: not recognized

Molecule: Ac-KYSN(NH2)GL (Ac-KYS[N(NH2)]GL-NH2; SMILES CC(=O)N[C@@H](CCCCN)C(=O)N[C@@H](Cc1ccc(O)cc1)C(=O)N[C@@H](CO)C(=O)N[C@@H](CC(=O)NN)C(=O)NCC(=O)N[C@@H](CC(C)C)C(N)=O)
- acyl donor substrate in butelase 1-mediated ligation [6]: good acyl donor substrate

Molecule: ISYGNDALMP-NH2 [Peptide 8, reference compound]
- Ki [1]: 0.06 µM
- metabolised at 32 min, 100 μM ([3]; in 32 min, read-out: degradation in human serum): > 50%
